In ChEMBL document CHEMBL1201862, “PubChem BioAssay data set” (2004):
Active and inactive are the calls of the source.

Legend:
BJ [1] = assay: BJ-TERT-LT-ST fibroblast viability loss – cell-based, RAS-independent, luminescence, dose response (AID 1935); type: functional; settings: Homo sapiens;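 also: BJ fibroblasts immortalized with TERT plus LT and ST oncogenes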
cells [2] = type: functional, cell-based
[3] = Trypanosoma cruzi growth suppression in host cells – NIH3T3 host cells, beta-gal luminescence, confirmation (AID 2044); type: functional, cell-based;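 also: intracellular parasites grown in NIH/3T3 mouse fibroblasts as host cells; luminescent beta-galactosidase reporter signal from transgenic T. cruzi replicating inside host cells; inhibitors lower the luminescence signal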
BJ [4] = assay: BJ-TERT fibroblast viability loss – cell-based, RAS-independent, luminescence, dose response (AID 1933); type: functional; settings: Homo sapiens
[5] = loss of viability in HepG2 cells – cell-based, CellTiter-Glo, cherry-picked, cytotoxicity control for Shn3 inhibitor project, dose response (AID 624134); type: functional
[6] = reduction of Shn3 3'UTR-driven luciferase in osteoblasts – cell-based, Clone20 osteoblasts, firefly luciferase, cherry-picked, dose response (AID 624132); type: functional;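 also: firefly luciferase luminescence from reporter carrying the Shn3 3'UTR in osteoblasts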
BJ [7] = assay: cells; type: functional, cell-based; settings: Homo sapiens
Hexokinase HKDC1 = biological target: T1, Hexokinase HKDC1 (Homo sapiens, UniProt Q2TB90); assay: inhibition of HKDC1 glucose phosphorylation – biochemical, W721R variant, dose response (AID 504729); type: functional
T1 sequence (Q2TB90 whole entry): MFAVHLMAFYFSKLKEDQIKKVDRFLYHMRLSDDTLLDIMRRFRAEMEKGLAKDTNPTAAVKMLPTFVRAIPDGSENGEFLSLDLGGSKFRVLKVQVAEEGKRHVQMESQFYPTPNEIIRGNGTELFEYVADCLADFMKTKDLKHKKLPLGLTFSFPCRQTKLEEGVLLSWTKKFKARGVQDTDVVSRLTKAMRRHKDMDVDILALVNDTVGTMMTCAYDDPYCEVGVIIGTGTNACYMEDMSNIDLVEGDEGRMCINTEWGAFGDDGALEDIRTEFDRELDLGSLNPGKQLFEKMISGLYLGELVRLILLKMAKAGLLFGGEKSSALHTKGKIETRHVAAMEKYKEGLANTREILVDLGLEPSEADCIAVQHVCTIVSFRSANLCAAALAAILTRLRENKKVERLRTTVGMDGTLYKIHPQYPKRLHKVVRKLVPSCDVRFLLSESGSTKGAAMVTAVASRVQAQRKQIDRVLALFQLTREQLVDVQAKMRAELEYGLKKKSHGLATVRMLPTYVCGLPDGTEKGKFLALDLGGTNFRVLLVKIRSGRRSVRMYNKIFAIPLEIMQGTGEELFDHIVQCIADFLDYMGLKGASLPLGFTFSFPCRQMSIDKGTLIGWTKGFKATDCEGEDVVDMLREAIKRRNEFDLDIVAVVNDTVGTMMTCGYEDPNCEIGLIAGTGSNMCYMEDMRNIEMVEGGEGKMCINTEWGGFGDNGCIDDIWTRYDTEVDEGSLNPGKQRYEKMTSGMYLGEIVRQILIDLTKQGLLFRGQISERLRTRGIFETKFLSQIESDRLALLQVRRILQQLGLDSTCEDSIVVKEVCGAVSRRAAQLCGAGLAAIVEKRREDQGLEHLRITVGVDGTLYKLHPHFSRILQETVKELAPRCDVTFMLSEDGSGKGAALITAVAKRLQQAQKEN

[8] = NIH3T3 cell viability loss – ATP luminescence, mouse fibroblasts, counter-screen, dose response (AID 2010); type: functional, cell-based;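 also: cells exposed to compound for about 90 hours before reading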
cells [9] = type: functional, cell-based; remark: listed apart in the source
[10] = non-specific 3'UTR reporter inhibition in Clone20-Shn3RL – cell-based, Renilla luciferase, cherry-picked, counter-screen for Shn3 inhibitor project, dose response (AID 624133); type: functional
[11] = biological target: T2, Histone-lysine N-methyltransferase NSD2 (Homo sapiens, UniProt O96028); type: biochemical
T2 sequence (O96028 whole entry): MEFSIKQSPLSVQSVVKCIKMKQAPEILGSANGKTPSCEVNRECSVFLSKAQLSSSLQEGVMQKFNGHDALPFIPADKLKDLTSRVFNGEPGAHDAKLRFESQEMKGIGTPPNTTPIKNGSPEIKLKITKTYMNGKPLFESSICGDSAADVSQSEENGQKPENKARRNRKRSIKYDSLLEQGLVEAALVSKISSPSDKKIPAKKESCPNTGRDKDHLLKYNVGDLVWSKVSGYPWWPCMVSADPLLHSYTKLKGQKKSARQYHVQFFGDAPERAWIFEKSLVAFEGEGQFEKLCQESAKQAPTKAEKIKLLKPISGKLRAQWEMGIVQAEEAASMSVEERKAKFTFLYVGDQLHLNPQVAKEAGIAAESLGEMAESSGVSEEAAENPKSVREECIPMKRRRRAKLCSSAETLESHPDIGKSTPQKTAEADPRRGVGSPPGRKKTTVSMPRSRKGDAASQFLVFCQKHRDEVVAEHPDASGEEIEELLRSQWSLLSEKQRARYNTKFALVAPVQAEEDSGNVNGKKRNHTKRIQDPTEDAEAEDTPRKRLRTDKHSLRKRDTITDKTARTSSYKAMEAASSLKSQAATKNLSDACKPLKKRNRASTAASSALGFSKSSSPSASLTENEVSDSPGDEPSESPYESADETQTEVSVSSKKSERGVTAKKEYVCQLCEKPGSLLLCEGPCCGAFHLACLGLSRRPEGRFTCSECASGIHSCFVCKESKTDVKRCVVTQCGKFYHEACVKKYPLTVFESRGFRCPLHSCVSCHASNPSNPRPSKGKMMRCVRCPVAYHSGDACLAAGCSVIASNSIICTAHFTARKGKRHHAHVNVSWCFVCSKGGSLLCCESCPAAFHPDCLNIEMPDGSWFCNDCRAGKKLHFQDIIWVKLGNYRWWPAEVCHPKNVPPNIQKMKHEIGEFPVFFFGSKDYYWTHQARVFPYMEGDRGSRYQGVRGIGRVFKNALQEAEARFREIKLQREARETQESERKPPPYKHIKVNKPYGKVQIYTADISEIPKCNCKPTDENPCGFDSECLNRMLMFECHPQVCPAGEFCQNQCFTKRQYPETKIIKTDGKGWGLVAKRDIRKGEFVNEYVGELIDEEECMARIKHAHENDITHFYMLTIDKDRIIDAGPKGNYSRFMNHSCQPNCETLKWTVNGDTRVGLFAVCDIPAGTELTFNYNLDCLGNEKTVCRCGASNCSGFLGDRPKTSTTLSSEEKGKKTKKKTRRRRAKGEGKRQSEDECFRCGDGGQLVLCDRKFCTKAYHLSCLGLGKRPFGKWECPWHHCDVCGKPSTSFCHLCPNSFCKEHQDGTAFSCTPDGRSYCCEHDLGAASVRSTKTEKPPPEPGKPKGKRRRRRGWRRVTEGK

[12] = DRD fibroblast viability loss – cell-based, non-viral oncogenic, luminescence, dose response (AID 1934); type: functional; settings: Homo sapiens
[13] = biological target: DNA dC->dU-editing enzyme APOBEC-3G (Homo sapiens, UniProt Q9HC16); assay: Dose Response confirmation of small molecule APOBEC3G DNA Deaminase Inhibitors via a fluorescence-based single-stranded DNA deaminase assay. [Related pubchem assays (depositor defined):AID493012, AID493028]; type: functional
Chain of DNA dC->dU-editing enzyme APOBEC-3G (Q9HC16 whole entry): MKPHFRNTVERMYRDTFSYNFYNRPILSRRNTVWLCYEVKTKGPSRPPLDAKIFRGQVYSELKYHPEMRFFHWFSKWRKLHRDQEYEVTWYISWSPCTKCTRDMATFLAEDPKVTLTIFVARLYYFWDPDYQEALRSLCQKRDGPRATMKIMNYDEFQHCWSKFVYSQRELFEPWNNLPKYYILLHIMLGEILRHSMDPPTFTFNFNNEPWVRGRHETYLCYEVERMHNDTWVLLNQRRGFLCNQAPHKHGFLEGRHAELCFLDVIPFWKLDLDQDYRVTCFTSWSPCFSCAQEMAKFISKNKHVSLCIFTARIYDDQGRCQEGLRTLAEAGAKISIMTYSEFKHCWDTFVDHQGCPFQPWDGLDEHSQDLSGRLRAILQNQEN

Leucine aminopeptidase = biological target: T3, Leucine aminopeptidase (Plasmodium falciparum 3D7, UniProt Q8IL11); assay: P. falciparum M17LAP inhibitors, primary screen, biochemical, fluorogenic H-Leu-NHMec substrate, 1536-well (AID 1619); type: functional
T3 sequence (Q8IL11 whole entry): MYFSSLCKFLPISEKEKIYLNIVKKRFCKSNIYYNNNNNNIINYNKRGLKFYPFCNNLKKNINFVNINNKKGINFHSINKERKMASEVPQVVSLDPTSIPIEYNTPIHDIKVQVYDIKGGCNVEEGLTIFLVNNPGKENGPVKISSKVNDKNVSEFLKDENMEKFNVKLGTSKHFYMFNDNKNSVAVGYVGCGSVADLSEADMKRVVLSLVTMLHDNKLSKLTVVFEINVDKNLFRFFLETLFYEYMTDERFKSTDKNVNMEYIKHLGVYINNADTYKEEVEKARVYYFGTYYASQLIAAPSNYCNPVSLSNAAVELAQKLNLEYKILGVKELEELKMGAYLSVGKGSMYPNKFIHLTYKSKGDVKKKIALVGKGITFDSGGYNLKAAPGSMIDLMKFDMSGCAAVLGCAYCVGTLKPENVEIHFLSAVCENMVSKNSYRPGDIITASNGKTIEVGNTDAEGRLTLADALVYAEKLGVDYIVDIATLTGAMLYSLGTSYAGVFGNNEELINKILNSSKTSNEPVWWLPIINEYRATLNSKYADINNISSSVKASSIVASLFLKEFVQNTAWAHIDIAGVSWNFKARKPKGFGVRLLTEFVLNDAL

[14] = Luminescence Cell-Based Dose Retest to Confirm Inhibitors of Cancer Stem Cells. [Related pubchem assays (depositor defined):AID2717, AID2721]; type: functional; settings: Homo sapiens
[15] = biological target: Voltage-dependent T-type calcium channel subunit alpha-1H (Homo sapiens, UniProt O95180); type: functional;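 also: channel activity triggered by adding a high calcium stimulation buffer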
Chain of Voltage-dependent T-type calcium channel subunit alpha-1H (O95180 whole entry): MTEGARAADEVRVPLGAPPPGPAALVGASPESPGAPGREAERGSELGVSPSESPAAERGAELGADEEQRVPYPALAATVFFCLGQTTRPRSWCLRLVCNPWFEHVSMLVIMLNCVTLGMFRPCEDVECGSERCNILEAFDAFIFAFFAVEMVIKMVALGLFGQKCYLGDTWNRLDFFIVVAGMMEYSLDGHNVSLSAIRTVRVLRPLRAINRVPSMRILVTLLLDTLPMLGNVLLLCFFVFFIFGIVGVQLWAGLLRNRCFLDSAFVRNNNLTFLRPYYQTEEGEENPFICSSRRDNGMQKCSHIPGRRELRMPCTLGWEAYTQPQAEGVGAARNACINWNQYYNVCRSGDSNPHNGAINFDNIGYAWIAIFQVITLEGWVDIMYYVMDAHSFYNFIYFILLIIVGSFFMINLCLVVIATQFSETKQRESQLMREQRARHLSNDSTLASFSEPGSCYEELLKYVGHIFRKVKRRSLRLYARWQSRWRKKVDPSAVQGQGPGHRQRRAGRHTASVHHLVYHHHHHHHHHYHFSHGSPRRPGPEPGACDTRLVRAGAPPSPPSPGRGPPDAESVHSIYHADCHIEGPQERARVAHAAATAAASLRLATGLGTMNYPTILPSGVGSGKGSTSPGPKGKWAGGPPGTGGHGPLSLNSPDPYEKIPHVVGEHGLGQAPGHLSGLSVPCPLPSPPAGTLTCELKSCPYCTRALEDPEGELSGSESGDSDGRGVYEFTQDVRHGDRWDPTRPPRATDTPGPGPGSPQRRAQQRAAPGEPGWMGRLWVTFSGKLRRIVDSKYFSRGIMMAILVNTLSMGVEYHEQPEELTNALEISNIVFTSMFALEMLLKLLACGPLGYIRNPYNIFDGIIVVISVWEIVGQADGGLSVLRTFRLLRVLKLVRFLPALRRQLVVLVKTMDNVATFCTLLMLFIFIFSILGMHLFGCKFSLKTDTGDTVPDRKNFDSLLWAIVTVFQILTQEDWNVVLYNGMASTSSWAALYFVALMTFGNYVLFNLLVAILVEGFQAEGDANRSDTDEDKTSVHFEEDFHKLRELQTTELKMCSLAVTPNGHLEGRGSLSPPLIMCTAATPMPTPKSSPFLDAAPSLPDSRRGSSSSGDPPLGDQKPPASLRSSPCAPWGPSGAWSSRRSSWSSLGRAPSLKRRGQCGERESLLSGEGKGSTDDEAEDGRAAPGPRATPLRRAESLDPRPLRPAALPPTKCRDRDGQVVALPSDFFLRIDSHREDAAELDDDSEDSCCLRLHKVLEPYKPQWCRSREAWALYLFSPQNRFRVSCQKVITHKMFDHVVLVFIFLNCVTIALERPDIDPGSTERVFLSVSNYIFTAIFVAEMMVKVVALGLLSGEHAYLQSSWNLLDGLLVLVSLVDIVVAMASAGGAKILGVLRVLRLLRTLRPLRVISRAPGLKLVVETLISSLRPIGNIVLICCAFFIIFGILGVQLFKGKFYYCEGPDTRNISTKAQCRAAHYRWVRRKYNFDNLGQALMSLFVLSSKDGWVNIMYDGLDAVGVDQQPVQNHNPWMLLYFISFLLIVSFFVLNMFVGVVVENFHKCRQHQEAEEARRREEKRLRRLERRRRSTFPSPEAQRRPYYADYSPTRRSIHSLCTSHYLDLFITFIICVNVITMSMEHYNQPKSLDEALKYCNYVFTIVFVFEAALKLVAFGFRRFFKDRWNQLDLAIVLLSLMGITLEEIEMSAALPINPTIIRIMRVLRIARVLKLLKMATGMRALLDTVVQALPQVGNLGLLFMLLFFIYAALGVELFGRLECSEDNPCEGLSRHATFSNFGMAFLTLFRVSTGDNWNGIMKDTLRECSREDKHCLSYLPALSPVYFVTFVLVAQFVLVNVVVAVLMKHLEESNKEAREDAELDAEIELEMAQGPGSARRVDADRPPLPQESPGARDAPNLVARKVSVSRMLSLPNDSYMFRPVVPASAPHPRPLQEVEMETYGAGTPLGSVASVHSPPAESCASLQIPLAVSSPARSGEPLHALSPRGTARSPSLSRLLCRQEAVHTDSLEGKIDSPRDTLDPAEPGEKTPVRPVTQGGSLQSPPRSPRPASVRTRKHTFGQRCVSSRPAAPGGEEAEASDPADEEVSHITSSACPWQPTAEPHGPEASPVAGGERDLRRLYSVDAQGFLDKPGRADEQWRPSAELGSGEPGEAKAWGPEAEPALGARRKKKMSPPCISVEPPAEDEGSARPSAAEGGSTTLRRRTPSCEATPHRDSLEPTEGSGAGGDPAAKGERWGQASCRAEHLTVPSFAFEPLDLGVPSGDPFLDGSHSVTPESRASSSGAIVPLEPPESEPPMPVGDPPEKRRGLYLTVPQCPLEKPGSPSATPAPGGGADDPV

CAAX prenyl protease 2 = biological target: T4, CAAX prenyl protease 2 (Saccharomyces cerevisiae S288c, UniProt Q03530); type: biochemical
T4 sequence (Q03530 whole entry): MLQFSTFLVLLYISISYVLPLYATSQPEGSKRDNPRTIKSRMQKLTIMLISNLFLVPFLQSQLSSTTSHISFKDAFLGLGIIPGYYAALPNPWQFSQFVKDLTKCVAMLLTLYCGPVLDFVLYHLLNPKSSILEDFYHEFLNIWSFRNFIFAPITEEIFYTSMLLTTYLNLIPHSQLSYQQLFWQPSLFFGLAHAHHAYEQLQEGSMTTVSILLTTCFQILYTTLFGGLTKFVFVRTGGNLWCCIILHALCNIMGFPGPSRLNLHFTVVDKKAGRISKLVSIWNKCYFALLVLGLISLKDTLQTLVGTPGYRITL

Trypsin = Trypsin (Sus scrofa, UniProt P00761); assay: trypsin protease activity blockade – biochemical, quenched peptide fluorescence, cherry-pick, selectivity assay for Rce1 protease inhibitor project, dose response (AID 488789)
Chain of Trypsin (P00761 whole entry): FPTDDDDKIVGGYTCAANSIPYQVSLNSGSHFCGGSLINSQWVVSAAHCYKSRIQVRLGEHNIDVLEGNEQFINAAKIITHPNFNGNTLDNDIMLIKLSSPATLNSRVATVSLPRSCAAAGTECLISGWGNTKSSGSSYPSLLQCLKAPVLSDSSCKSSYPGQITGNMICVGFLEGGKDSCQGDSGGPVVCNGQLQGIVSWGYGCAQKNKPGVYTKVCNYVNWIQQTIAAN

ORF 73 = ORF 73 (Human herpesvirus 8, UniProt O40947); assay: KSHV LANA DNA-binding disruption – biochemical, fluorescence polarization, cherry-picked samples, dose response (AID 504725); set-up: species or system Human gammaherpesvirus 8;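 also: fluorescence polarization of a labeled DNA duplex reporting LANA DNA binding; potency is for inhibitors that block LANA binding to the DNA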
Chain of ORF 73 (O40947 whole entry, the tested form may be a part): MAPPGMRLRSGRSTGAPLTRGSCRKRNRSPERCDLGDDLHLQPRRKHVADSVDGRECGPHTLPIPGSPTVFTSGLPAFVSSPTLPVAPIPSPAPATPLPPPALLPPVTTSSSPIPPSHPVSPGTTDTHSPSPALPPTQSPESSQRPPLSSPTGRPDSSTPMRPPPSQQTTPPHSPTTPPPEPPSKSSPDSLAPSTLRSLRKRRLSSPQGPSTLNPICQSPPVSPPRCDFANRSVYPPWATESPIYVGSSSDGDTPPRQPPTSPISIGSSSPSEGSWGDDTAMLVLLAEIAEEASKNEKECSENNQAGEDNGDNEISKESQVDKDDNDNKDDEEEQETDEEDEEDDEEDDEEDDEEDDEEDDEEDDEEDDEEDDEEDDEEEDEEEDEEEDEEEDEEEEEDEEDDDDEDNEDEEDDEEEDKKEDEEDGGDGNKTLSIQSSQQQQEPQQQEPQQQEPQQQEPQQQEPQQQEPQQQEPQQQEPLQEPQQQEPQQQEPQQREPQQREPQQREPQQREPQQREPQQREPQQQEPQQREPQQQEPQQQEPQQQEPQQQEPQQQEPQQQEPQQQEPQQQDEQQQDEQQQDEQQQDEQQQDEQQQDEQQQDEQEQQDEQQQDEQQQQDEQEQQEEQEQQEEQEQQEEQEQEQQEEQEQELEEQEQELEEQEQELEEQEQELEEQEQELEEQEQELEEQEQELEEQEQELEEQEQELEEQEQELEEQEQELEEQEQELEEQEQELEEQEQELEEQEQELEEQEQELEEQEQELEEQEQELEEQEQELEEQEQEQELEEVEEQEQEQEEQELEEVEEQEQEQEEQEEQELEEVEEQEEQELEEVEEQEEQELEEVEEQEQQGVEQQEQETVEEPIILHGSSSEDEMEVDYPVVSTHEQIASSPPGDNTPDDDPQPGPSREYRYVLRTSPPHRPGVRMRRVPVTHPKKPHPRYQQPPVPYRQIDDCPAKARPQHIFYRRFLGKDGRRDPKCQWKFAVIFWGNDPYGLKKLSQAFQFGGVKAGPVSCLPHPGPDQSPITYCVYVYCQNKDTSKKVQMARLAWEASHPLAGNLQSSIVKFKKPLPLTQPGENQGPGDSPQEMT

[16] = biological target: T5, Carboxy-terminal domain RNA polymerase II polypeptide A small phosphatase 1 (Homo sapiens, UniProt Q9GZU7); assay: CTDSP1 inhibitors, concentration-response, biochemical, absorbance readout, ultra-high-throughput screen actives (AID 540297); type: functional
T5 sequence (Q9GZU7 whole entry): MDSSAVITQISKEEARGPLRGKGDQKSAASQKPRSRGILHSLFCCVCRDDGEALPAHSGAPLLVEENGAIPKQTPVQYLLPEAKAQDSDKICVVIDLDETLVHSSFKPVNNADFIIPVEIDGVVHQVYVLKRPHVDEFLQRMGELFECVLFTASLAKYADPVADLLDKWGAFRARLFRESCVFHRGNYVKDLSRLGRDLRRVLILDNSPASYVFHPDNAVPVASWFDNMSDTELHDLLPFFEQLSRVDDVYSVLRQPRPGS

[17] = biological target: DNA (cytosine-5)-methyltransferase 1 (Homo sapiens, UniProt P26358); assay: inhibition of DNA methylation by DNMT1 – biochemical, fluorescent molecular beacon, confirmation (AID 602386); type: functional
[18] = biological target: T6, Long-chain-fatty-acid--AMP ligase FadD28 (Mycobacterium tuberculosis, UniProt P9WQ59); assay: Fluorescence polarization aasay to screen for inhibitors that compete for the binding of FadD28 to a bisubstrate Measured in Biochemical System Using Plate Reader - 2147-01_Inhibitor_Dose_CherryPick_Activity.; type: functional, Mycobacterium tuberculosis H37Rv
T6 sequence (P9WQ59 whole entry): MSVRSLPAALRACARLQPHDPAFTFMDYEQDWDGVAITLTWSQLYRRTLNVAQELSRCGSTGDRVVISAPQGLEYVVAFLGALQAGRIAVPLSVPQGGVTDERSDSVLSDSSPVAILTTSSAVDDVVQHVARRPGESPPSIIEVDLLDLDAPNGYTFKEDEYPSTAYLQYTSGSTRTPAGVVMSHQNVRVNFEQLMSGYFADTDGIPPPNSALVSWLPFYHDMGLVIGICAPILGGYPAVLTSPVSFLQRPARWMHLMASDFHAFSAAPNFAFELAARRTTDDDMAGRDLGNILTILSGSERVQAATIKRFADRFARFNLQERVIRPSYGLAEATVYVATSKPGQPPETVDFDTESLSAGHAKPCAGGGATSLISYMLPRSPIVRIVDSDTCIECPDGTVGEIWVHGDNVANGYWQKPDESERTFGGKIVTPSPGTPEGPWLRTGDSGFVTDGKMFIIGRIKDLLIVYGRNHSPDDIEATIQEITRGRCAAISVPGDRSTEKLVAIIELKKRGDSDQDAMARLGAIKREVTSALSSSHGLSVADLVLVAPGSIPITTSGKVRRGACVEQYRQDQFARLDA

## CCN(CC)CCNc1cc(C)nc2c1C(=O)C(=O)C=C2N1CCCCC1
BJ [1]
  EC50: 8.38 µM (active)
Cells [2]
  EC50: > 350 µM (not active)
[3]
  EC50: 1.44 µM (active)
BJ [4]
  EC50: 5.91 µM (inconclusive)
[5]
  AC50: 5.54 µM (active)
[6]
  AC50: 6.61 µM (active)
BJ [7]
  EC50: 10.2 µM (active)
Hexokinase HKDC1
  IC50: 13.2 µM (active)
[8]
  EC50: > 60 µM (not active)
Cells [9]
  EC50: > 350 µM (not active)
[10]
  AC50: 6.45 µM (active)
[11]
  AC50: > 20 µM (inactive)
[12]
  EC50: 9.47 µM (active)

## COc1cccc(Nc2nnc(S)s2)c1
[13]
  IC50: > 100 µM (inactive)
Cells [2]
  EC50: > 350 µM (not active)
Cells [9]
  EC50: > 350 µM (not active)
Leucine aminopeptidase
  IC50: 6.54 µM (active)

## COc1ccc(Cn2nnnc2C(C(C)C)N(Cc2ccco2)Cc2cccs2)cc1 (stereo unspecified)
[14]
  AC50: 2.02 µM (active)
[15]
  EC50: 6.56 µM (active)

## CCN(CC)Cc1c(O)ccc2c(=O)c(-c3ccccc3OC)coc12
CAAX prenyl protease 2
  AC50: 13.8 µM (active)
Trypsin
  AC50: 21.4 µM (active)

## O=C(NC1CCCC1)C(c1ccccc1)N(Cc1ccc2c(c1)OCO2)C(=O)Cc1cccs1 (stereo unspecified)
[15]
  EC50: 1.52 µM (active)

## Cc1ccccc1NC(=O)CN1C(=O)N/C(=C\c2cccn2-c2cccc(C(=O)O)c2)C1=O
ORF 73
  AC50: 74.7 µM (active)
[16]
  IC50: 4.42 µM (active)
[17]
  IC50: 6.37 µM (active)
[18]
  AC50: 55.3 µM (active)
